Measured values from patent US11964943B2, “3,5-diarylidenyl-n-substituted-piperid-4-one-derived inhibitors of Stat3 pathway activity and uses thereof” (priority 2017, dated 2024).
“Also recorded” adds a separate entry of the source. Where two headings read alike, the source gives them in different places.

Key:
[1] = system: MDA-MB-435 cancer cell line; experiment: SRB antiproliferative assay, MDA-MB-435; format: cell-based, human
[2] = system: pStat3^Tyr705; experiment: Immunoblotting of phosphorylated Stat3 in cancer cells; format: cell-based, human; settings: for persistence of pStat3 inhibition post treatment: DU145 and A549, after 18 h treatment and drug removal; for inhibition of Stat3 tyrosine (705) phosphorylation (pStat3): DU145 and A549 cells with constitutively active Stat3, 18 h; for concentrations at which pSTAT3 is inhibited: cells with persistent Stat3 activation
Method: (§1) Whole cell lysates were prepared by incubation of harvested, trypsinised cells with CelLytic™ lysis buffer (Sigma-Aldrich) supplemented with 1× protease and 1× phosphatase inhibitors (Roche). Protein quantification was carried out using a protein assay kit (Bio-Rad). 40 μg of the lysates were denatured by heating for 5 min at 95° C. in sample buffer containing 100 mM Tris-Cl (pH 6.8), 4% SDS, 10% 2-mercaptoethanol, 20% glycerol, and 0.02% bromophenol blue. Precision Plus Protein Dual colour standards (Bio-Rad) were used as a molecular weight reference. For the detection of STAT3, pSTAT3, α/β tubulin, cleaved PARP, Bcl-2, Bcl-xL, FANCD2, BRCA1, EME1 and MUS81, proteins were separated on a NuPAGE 7% Tris-acetate gel (Life Technologies) and subsequently transferred to polyvinylidene difluoride membranes (Immobilon®-P transfer membrane; Millipore). […] Membranes were blocked for 1 h at ambient temperature in a blocking buffer containing 5% w/v Bovine Serum Albumin (BSA; Sigma-Aldrich) in 1×TBS, 0.1% Tween-20. All proteins were identified by incubation in a 1:1000 dilution of the respective polyclonal antibodies (Cell signaling) in blocking buffer overnight at 4° C. and subsequent incubation for 1 h with an anti-rabbit or anti-mouse secondary antibody (Cell signalling) at a dilution of 1:1000. The α/β tubulin (1:2000; Cell Signaling) and the anti-phospho-histone H2AX Antibody (1:500; Millipore) were used in the denoted dilutions. Antibody binding was visualized by enhanced chemiluminescence (Amersham) on autoradiography film (Kodak-X-Omat). Alternatively Images were captured by the GelDoc-It Imaging System Fusion Fx7 (Vilber Lourmat, Germany).
as §1, with “Immunoblotting. Whole” for “Whole”, “CelLytic™ M” for “CelLytic™”, “pSTAT3, a/0” for “pSTAT3, α/β”, “in 1×TBS” for “in 1×TBS,”, “(Cell signalling)” for “(Cell signaling)”

[3] = system: HCT116-oxaliplatin resistant spheroids; experiment: CellTiter-Glo 3D cell viability assay, HCT116-oxaliplatin resistant spheroids; format: cell-based; settings: 96 h exposure, 3D CellTiter-Glo
Method: For cell spheroid formation, HCT116-oxaliplatin resistant cells, A2780-cisplatin resistant cells, and HT1080 cells were seeded in Corning® Spheroid opaque-walled 96 well Microplates (ultra-low attachment; Nuclon™ Sphera™, Thermofisher) at densities of 2000 cells/well in 100 μl of cell solution and allowed to grow for 4 days, before any manipulation.
Spheroid cells were treated by adding 100 μl of 2-fold the desired compound concentration and incubated at 37° C. for 96 h. At the end of drug incubation, both the plates and the CellTitre-Glo® reagent (previously thawn overnight in the fridge) were equilibrated at room temperature for at least 30 min. Subsequently, 100 μl of cell solution were carefully removed from each well, without disrupting the spheroid and equal volume of CellTitre-Glo® reagent was added. Cell lysis was performed by vigorously shaking the plate for 5 min. To stabilize the luminescent signal, the plate was incubated in the dark at RT for another 30 min before luminescence was recorded on a plate reader. The cell viability of treated samples was normalised to the untreated controls.
The cytotoxicity studies in spheroids were conducted using the CellTiter-Glo® 3D Cell viability assay (Promega) following the instructions of the manufacturer.

[4] = system: A-10 smooth muscle cells; experiment: Microtubule disruption by indirect immunofluorescence; format: cell-based; settings: 30 μM
[5] = system: B16 (melanoma) cells; experiment: MTT cytotoxicity assay, B16 cells
[6] = system: DU145 cells; experiment: Colony formation assay for radiosensitization; format: cell-based
Method: The X-Ray radiation facility provided an AGO HS MP-1 X-ray machine with a Varian ND1-321 tube used to produce X rays at a dose rate of 1 Gy/min.
Stock cultures were trypsinised and 2.5×10^4 cells were seeded into 6-well plates and incubated at 37° C. for 24-48 hours. When cells reached […] confluency, they were treated with IE-8 (0, 0.8, 1, and 1.2 μM) for 18 hours. After drug treatment, cells were harvested by trypsinisation and re-seeded. […] Plates were then incubated for 14 days at 37° C. with 5% CO2. After this incubation, plates were washed with tap water and fixed. Colonies were stained for 30 minutes at room temperature with 1% (w/v) crystal violet (Sigma-Aldrich) in 10% ethanol, and subsequently dried overnight at room temperature. Colonies consisting of at least 50 cells were counted for each treatment. The number of colonies in unirradiated wells was used to determine the plating efficiency (number of colonies/number of cells seeded). The following formula was used to calculate survival fraction: […]

3,5-Di(3,4,5-trimethoxybenzylidene)-1-phenylpiperidin-4-one [IE-8]
IC50 ([1]; 48 h exposure): 0.15 µM | persistence of pStat3 inhibition post treatment [2]: at least 24 h | inhibition of Stat3 tyrosine (705) phosphorylation (pStat3) [2]: efficiently inhibits | concentrations at which pSTAT3 is inhibited ([2]; 18 h): > 1 μM | IC50 [3]: 8.5 µM | effect on microtubules [4]: did not show any effect on the microtubules | IC50 ([5]; read-out: IC50 (μM) B16, 72 h exposure, MTT, mean of three independent experiments): ~0.3 µM

COc1cc(/C=C2\CN(c3ccccc3)C/C(=C\c3cc(OC)c(OC)c(OC)c3)C2=O)cc(OC)c1OC [IE-8, 3,5-Di(3,4,5-trimethoxybenzylidene)-1-phenylpiperidin-4-one]
IC50 ([1]; Homo sapiens, MDA-MB-435, 48 h exposure): 0.15 µM | inhibition of IL-6 induced pStat3 ([2]; A2780-cisplatin resistant cells, 18 h): the most potent inhibitor in this series; also recorded: efficiently inhibited | pStat3 inhibition after acute treatment ([2]; DU145, 5 μM, 1 h): sufficient to inhibit pStat3 | persistence of pStat3 inhibition post treatment [2]: at least 24 h | inhibition of Stat3 tyrosine (705) phosphorylation (pStat3) [2]: inhibits pStat3^Tyr705 levels without affecting the total Stat3 levels; also recorded: efficiently inhibited | inhibition of constitutively active Stat3 (pStat3) ([2]; HCT116-oxaliplatin resistant cells, 18 h): the most potent among these inhibitors; also recorded: efficiently inhibited the constitutively active Stat3 | pStat3 inhibition in 3D spheroids ([2]; HCT116-oxaliplatin resistant or A2780-cisplatin resistant spheroids): inhibition of pStat3; also recorded: efficiently inhibited | concentrations at which pSTAT3 is inhibited ([2]; 18 h): > 1 μM | colony formation following irradiation ([6]; 18 h pretreatment): dose-dependent decrease in colony formation | Survival fraction ([6]; IE-8 0.8 μM 18 h pretreatment, 0 Gy): 1.000 | Survival fraction ([6]; IE-8 0.8 μM 18 h pretreatment, 2 Gy): 0.451 | Survival fraction ([6]; IE-8 0.8 μM 18 h pretreatment, 4 Gy): 0.147 | Survival fraction ([6]; IE-8 0.8 μM 18 h pretreatment, 6 Gy): 0.047 | Survival fraction ([6]; IE-8 0.8 μM 18 h pretreatment, 8 Gy): 0.013 | Survival fraction ([6]; IE-8 1 μM 18 h pretreatment, 0 Gy): 1.000 | Survival fraction ([6]; IE-8 1 μM 18 h pretreatment, 2 Gy): 0.440 | Survival fraction ([6]; IE-8 1 μM 18 h pretreatment, 4 Gy): 0.134 | Survival fraction ([6]; IE-8 1 μM 18 h pretreatment, 6 Gy): 0.026 | Survival fraction ([6]; IE-8 1 μM 18 h pretreatment, 8 Gy): 0.006 | Survival fraction ([6]; IE-8 1.2 μM 18 h pretreatment, 0 Gy): 1.000 | Survival fraction ([6]; IE-8 1.2 μM 18 h pretreatment, 2 Gy): 0.349 | Survival fraction ([6]; IE-8 1.2 μM 18 h pretreatment, 4 Gy): 0.077 | Survival fraction ([6]; IE-8 1.2 μM 18 h pretreatment, 6 Gy): 0.014 | Survival fraction ([6]; IE-8 1.2 μM 18 h pretreatment, 8 Gy): 0.002 | IC50 [3]: 8.5 µM | IC50 ([5]; Mus musculus, B16, 72 h, read-out: IC50 (μM) B16, 72 h exposure, MTT, mean of three independent experiments): 0.3 µM
